Data taken from patent publication US11560380B2, “Substituted naphthalene diimides and their use” (UCL Business Ltd, priority 2019, dated 2023).
Read-outs that look alike come from different tables or passages of the source.

Tests used:
MIA-PACA2 cells = test: MTS cell proliferation assay (CellTiter 96 AQueous One Solution), 96 hr; assay type: cell-based; conditions: Homo sapiens, MIA PaCa-2, 96 hr MTS assay
Source text: The CellTiter 96® AQueous One Solution Cell Proliferation Assay ([…]) is a colorimetric method for determining the number of viable cells in proliferation or cytotoxicity assays. The CellTiter 96® AQueous One Solution Reagent contains a novel tetrazolium compound [3-(4,5-dimethylthiazol-2-yl)-5-(3-carboxymethoxyphenyl)-2-(4-sulfophenyl)-2H-tetrazolium, inner salt; MTS] and an electron coupling reagent (phenazine ethosulfate; PES). PES has enhanced chemical stability, which allows it to be combined with MTS to form a stable solution. The MTS tetrazolium compound (Owen's reagent) is bioreduced by cells into a colored formazan product that is soluble in tissue culture medium. Assays are performed by adding a small amount of the CellTiter 96@ AQueous One Solution Reagent directly to culture wells, incubating for 1-4 hours and then recording the absorbance at 490 nm with a 96-well plate reader. The quantity of formazan product as measured by absorbance at 490 nm is directly proportional to the number of living cells in culture. The kit was used as per the manufacturers' instructions. After 96-hour incubation with each example compound in MIA-PACA2 cells, the cell proliferation of each sample was measured using the MTS Cell Titre 96 Aqueous One Solution Cell Proliferation Assay (Promega Ltd). The percentage of inhibition was calculated against the mean of the DMSO treated controls samples.

PC-3 = test: 72 hr XTT cell viability assay, PC-3; assay type: cell-based; conditions: Homo sapiens; PC-3, 72 hr XTT; read-out: IC50 cell growth inhibition
Source text: (§1) The CyQUANT XTT Cell Viability Assay (Invitrogen) is a complete, optimized assay that generates a consistent colorimetric detection of viable mammalian cells. The assay kit consists of two reagents, XTT Reagent (2,3-bis-(2-methoxy-4-nitro-5-sulfophenyl)-2H-tetrazolium-5-carboxanilide) and Electron Coupling Reagent. XTT Reagent is used to assess cell viability as a function of cellular redox potential, and the electron coupling reagent improves the dynamic range of the assay. The kit was used as per the manufacturers' instructions.

LNCaP = test: 72 hr XTT cell viability assay, LNCaP; assay type: cell-based; conditions: Homo sapiens, read-out: IC50 cell growth inhibition
Source text: as §1

VCaP = test: 72 hr XTT cell viability assay, VCaP; assay type: cell-based; conditions: Homo sapiens, read-out: IC50 cell growth inhibition
Source text: as §1

[1] = In vitro blood/plasma partitioning; assay type: in vitro ADME; conditions: blood and plasma
MIA-PACA2^gemR = test: 96 hr SRB cell growth inhibition, MIA-PACA2 gemR; assay type: cell-based; conditions: Homo sapiens, MIA PaCa-2
[2] = Plasma protein binding in vitro; assay type: in vitro ADME
PANC-1 = test: 96 hr SRB cell growth inhibition, PANC-1; assay type: cell-based; conditions: Homo sapiens; PANC-1, 96 hr SRB
22RV1 = test: 72 hr XTT cell viability assay, 22RV1; assay type: cell-based; conditions: Homo sapiens; 22RV1, 72 hr XTT; read-out: IC50 cell growth inhibition
Source text: as §1

DU145 = test: 72 hr XTT cell viability assay, DU145; assay type: cell-based; conditions: Homo sapiens, DU-145; DU145, 72 hr XTT; read-out: IC50 cell growth inhibition
Source text: as §1

[3] = Mouse microsomal stability; assay type: in vitro ADME; conditions: mouse microsomes; read-out: t1/2 mouse microsomal stability
MIA-PACA2 tumours = test: In vivo xenograft efficacy study, MIA-PACA2 model; conditions: for complete regression in tumour volume at the end of the dosing period: 1 mg/kg IV, 28 days; for tumours not showing complete regression, versus vehicle control: minority of tumours in the group
Experimental: Mice aged 5-7 weeks weighing approximately 25-32 g were implanted for the study and purchased from Charles River. The pancreatic tumour cell implantation procedure involved MIA-PACA2 cells (1×10^7 in Matrigel) being implanted subcutaneously using a 22-gauge needle onto the rear flank of the mice. Parameters evaluated include: tumour size and animal bodyweight. Tumour volume was measured three times weekly and bodyweight at least 3 times weekly. Allocation to treatment groups was done randomly when tumours reached approximately 50 mm^3 for animals in the efficacy study. […] Each group comprised 8 animals. All protocols used in this study were approved by the appropriate Animal Welfare and Ethical Review Board, and all procedures were carried out under the guidelines of the UK Animal (Scientific Procedures) Act 1986.
The data shown is mean±SD n=8 up to day 23 and n=4 to the end of the study. […] The starting tumour volumes were […]. Example 1 was active in both of the dosage regimens examined, 1× weekly and 2× weekly, both at a 1 mg/kg dose. Both had ⅝ complete regression in tumour volume at the end of the dosing period.

MIA-PACA2 = test: 96 hr SRB cell growth inhibition, MIA-PACA2; assay type: cell-based; conditions: for IC50: Homo sapiens, MIA PaCa-2, MIA-PACA2, 96 hr SRB
GQ = test: FRET melting with GQ; assay type: binding
[4] = Stability in saline at 0° C.; assay type: physicochemical
BX-PC3 = test: 96 hr SRB cell growth inhibition, BX-PC3; assay type: cell-based; conditions: Homo sapiens, BXPC-3; BX-PC3, 96 hr SRB
CAPAN-1 = test: 96 hr SRB cell growth inhibition, CAPAN-1; assay type: cell-based; conditions: Homo sapiens; CAPAN-1, 96 hr SRB
[5] = Aqueous solubility of salt; assay type: physicochemical; conditions: water; HCl/formate salt

Work on O=C1c2cc(-c3ccc(CNC4CCCC4)cc3)c3c4c(cc(NCCN5CCCC5)c(c24)C(=O)N1CCCN1CCOCC1)C(=O)N(CCCN1CCOCC1)C3=O [Example 6, 4-(4-((cyclopentylamino)methyl)phenyl)-2,7-bis(3-morpholinopropyl)-9-((2-(pyrrolidin-1-yl)ethyl)amino)benzo[lmn][3,8]phenanthroline-1,3,6,8(2H,7H)-tetraone] yielded an IC50 (MIA-PACA2 cells; read-out: ABS IC50) of 0.102 nM and an IC50 (MIA-PACA2 cells; read-out: Rel IC50) of 0.099 nM.
In the case of C[C@]12CC[C@H](O)CC1=CC[C@@H]1[C@@H]2CC[C@]2(C)C(c3cccnc3)=CC[C@@H]12 [Abiraterone], the IC50 (PC-3) is reported as 4820 nM and the IC50 (LNCaP) is reported as 3860 nM.
For O=C1c2cc(-c3ccc(CN4CCCCCC4)cc3)c3c4c(cc(NCCN5CCCC5)c(c24)C(=O)N1CCCN1CCOCC1)C(=O)N(CCCN1CCOCC1)C3=O [Example 7, 4-(4-(azepan-1-ylmethyl)phenyl)-2,7-bis(3-morpholinopropyl)-9-((2-(pyrrolidin-1-yl)ethyl)amino)benzo[lmn][3,8]phenanthroline-1,3,6,8(2H,7H)-tetraone], the IC50 (MIA-PACA2 cells; read-out: ABS IC50) was 0.182 nM and the IC50 (MIA-PACA2 cells; read-out: Rel IC50) was 0.117 nM.
With O=C1c2cc(-c3ccc(CN4CCCC4)cc3)c3c4c(cc(NCCN5CCCC5)c(c24)C(=O)N1CCCN1CCOCC1)C(=O)N(CCCN1CCOCC1)C3=O [Example 1, 2,7-bis(3-morpholinopropyl)-4-((2-(pyrrolidin-1-yl)ethyl)amino)-9-(4-(pyrrolidin-1-ylmethyl)phenyl)benzo[lmn][3,8]phenanthroline-1,3,6,8(2H,7H)-tetraone] the IC50 (PC-3) was 3 nM, the IC50 (VCaP) was 68 nM and the IC50 (LNCaP) was 247 nM. For the same compound, the blood plasma ratio [1] was 6.1, the IC50 (MIA-PACA2^gemR) was 3.8 nM and the fraction unbound [2] was 0.339. It also gave an IC50 (PANC-1) of 1.4 nM, an IC50 (22RV1) of 90 nM and an IC50 (DU145) of 32 nM. The half-life [3] was 4.47 h, the “complete regression in tumour volume at the end of the dosing period” value (MIA-PACA2 tumours; 1× weekly) was “⅝” and the “complete regression in tumour volume at the end of the dosing period” value (MIA-PACA2 tumours; 2× weekly) was “⅝”. For the same compound, the “tumour regrowth in complete regression cohorts” value (MIA-PACA2 tumours; 28 days post-dosing) was “no regrowth seen after 28 days post-dosing”, the “tumour growth and tumour size” value (MIA-PACA2 tumours; MIA-PACA2 xenograft, 28 days IV administration, followed by 28 days measurement) was “inhibited the growth of the pancreatic tumour and reduced the tumour's size considerably more than the comparative compound C1 or the known anti-cancer drug, Gemcitabine” and the tolerability (MIA-PACA2 tumours; compound and dosing schedules, IV, mice) was “well-tolerated showing no sign of adverse effects”. For the same compound, the “tumours not showing complete regression, versus vehicle control” value (MIA-PACA2 tumours) was “reductions in tumour growth, leading to consistently smaller volumes than in the vehicle control groups”, the IC50 (MIA-PACA2) was 1.3 nM and the “greater cellular potency relative to C1” value (MIA-PACA2; compared with C1) was 10 fold. For the same compound, the “FRET ΔTm, ° C. with GQ” value (GQ) was 23.1 °C, the “Stability in saline at 0° C.” value [4] was greater than 1 month and the IC50 (MIA-PACA2 cells; read-out: ABS IC50) was 0.056 nM. The IC50 (MIA-PACA2 cells; read-out: Rel IC50) was 0.035 nM, the IC50 (BX-PC3) was 2.6 nM and the IC50 (CAPAN-1) was 5.9 nM.
In the case of O=C1c2cc(-c3ccc(CN4CCOCC4)cc3)c3c4c(cc(NCCN5CCCC5)c(c24)C(=O)N1CCCN1CCOCC1)C(=O)N(CCCN1CCOCC1)C3=O [Example 2, 4-(4-(morpholinomethyl)phenyl)-2,7-bis(3-morpholinopropyl)-9-((2-(pyrrolidin-1-yl)ethyl)amino)benzo[lmn][3,8]phenanthroline-1,3,6,8(2H,7H)-tetraone], the IC50 (MIA-PACA2 cells; read-out: ABS IC50) is reported as 0.292 nM and the IC50 (MIA-PACA2 cells; read-out: Rel IC50) is reported as 0.188 nM.
Compound CN1CCN(Cc2ccc(-c3cc4c5c(c(NCCN6CCCC6)cc6c5c3C(=O)N(CCCN3CCOCC3)C6=O)C(=O)N(CCCN3CCOCC3)C4=O)cc2)CC1 [Example 8] has an IC50 (MIA-PACA2 cells; read-out: ABS IC50) of 0.277 nM and an IC50 (MIA-PACA2 cells; read-out: Rel IC50) of 0.174 nM.
O=C1c2cc(-c3ccc(CN4CCCCC4)cc3)c3c4c(cc(NCCN5CCCC5)c(c24)C(=O)N1CCCN1CCOCC1)C(=O)N(CCCN1CCOCC1)C3=O [Example 4, 2,7-bis(3-morpholinopropyl)-4-(4-(piperidin-1-ylmethyl)phenyl)-9-((2-(pyrrolidin-1-yl)ethyl)amino)benzo[lmn][3,8]phenanthroline-1,3,6,8(2H,7H)-tetraone] showed an IC50 (MIA-PACA2 cells; read-out: ABS IC50) of 0.175 nM and an IC50 (MIA-PACA2 cells; read-out: Rel IC50) of 0.132 nM.
In the case of O=C1c2cc(-c3cccc(CN4CCCC4)c3)c3c4c(cc(NCCN5CCCC5)c(c24)C(=O)N1CCCN1CCOCC1)C(=O)N(CCCN1CCOCC1)C3=O [Example 3, 2,7-bis(3-morpholinopropyl)-4-((2-(pyrrolidin-1-yl)ethyl)amino)-9-(3-(pyrrolidin-1-ylmethyl)phenyl)benzo[lmn][3,8]phenanthroline-1,3,6,8(2H,7H)-tetraone], the IC50 (MIA-PACA2 cells; read-out: ABS IC50) is reported as 0.284 nM and the IC50 (MIA-PACA2 cells; read-out: Rel IC50) is reported as 0.282 nM.
CCN(CC)Cc1ccc(-c2cc3c4c(c(NCCN5CCCC5)cc5c4c2C(=O)N(CCCN2CCOCC2)C5=O)C(=O)N(CCCN2CCOCC2)C3=O)cc1 [Example 5, 4-(4-((diethylamino)methyl)phenyl)-2,7-bis(3-morpholinopropyl)-9-((2-(pyrrolidin-1-yl)ethyl)amino)benzo[lmn][3,8]phenanthroline-1,3,6,8(2H,7H)-tetraone] gave an IC50 (MIA-PACA2 cells; read-out: ABS IC50) of 0.18 nM and an IC50 (MIA-PACA2 cells; read-out: Rel IC50) of 0.239 nM.
With O=C1c2ccc3c4c(c(NCCN5CCCC5)cc(c24)C(=O)N1CCCN1CCOCC1)C(=O)N(CCCN1CCOCC1)C3=O [Example C1, reference compound] the IC50 (PC-3) was 94 nM, the IC50 (VCaP) was 135 nM and the IC50 (LNCaP) was 394 nM. The blood plasma ratio [1] was 10.9, the solubility [5] was greater than 5000 µg/mL and the IC50 (MIA-PACA2^gemR) was 14.9 nM. For the same compound, the fraction unbound [2] was 0.65, the IC50 (PANC-1) was 15.6 nM and the IC50 (22RV1) was 90 nM. The IC50 (DU145) was 113 nM, the half-life [3] was greater than 8 h and the “tumours not showing complete regression, versus vehicle control” value (MIA-PACA2 tumours) was “reductions in tumour growth, leading to consistently smaller volumes than in the vehicle control groups”. For the same compound, the IC50 (MIA-PACA2) was 13 nM, the “FRET ΔTm, ° C. with GQ” value (GQ) was 17.6 °C and the “Stability in saline at 0° C.” value [4] was greater than 1 month. For the same compound, the IC50 (BX-PC3) was 15.5 nM and the IC50 (CAPAN-1) was 26.5 nM.
